Like-named read-outs stand apart in the source and are kept apart here.
How the values were obtained:
[1] = test system: MG-63 human osteosarcoma cell line; assay: cells; format: cell-based; conditions: SRB assay, 48 h
Protocol: (§1) All the newly synthesized compounds were screened for their in vitro anticancer activity against six cancer cell lines: SK-MEL-2, MCF-7, IMR-32, MG-63, HT-29 and Hep-G2 by SRB assay, using adriamycin as a standard drug. All the synthesized derivatives 4(a–n) were also tested for their cytotoxic effect on normal cell lines i.e., NIH/3T3 (murine embryonic fibroblast by the SRB assay method. The cell lines were grown in RPMI 1640 medium containing 10% fetal bovine serum and 2 mM L-glutamine. For the present screening experiments, cells were inoculated into 96 well microtiter plates in 90 µL at 5000 cells per well. After cell inoculation, the microtiter plates were incubated at 37 °C, 5% CO2, 95% air and 100% relative humidity for 24 h prior to addition of experimental drugs. Experimental drugs were solubilized in appropriate solvent to prepare stock of 10^−2 concentration. At the time of experiment four 10-fold serial dilutions were made using complete medium. Aliquots of 10 µL of these different drug dilutions were added to the appropriate micro-titer wells already containing 90 µL of medium, resulting in the required final drug concentrations. After compound addition, plates were incubated at standard conditions for 48 h. and assay was terminated by the addition of cold trichloroacetic acid (TCA). Cells were fixed in situ by the gentle addition of […] (final concentration, 10% TCA) and incubated for 60 min at 4 °C. The supernatant was discarded; the plates were washed five times with tap water and air dried.
(§2) Sulforhodamine B (SRB) solution (50 µL) at 0.4% (w/v) in 1% acetic acid was added to each of the wells, and plates were incubated for 20 min at room temperature. After staining, unbound dye was recovered and the residual dye was removed by washing five times with 1% acetic acid. The plates were air dried. Bound stain was subsequently eluted with 10 mM trizma base, and the absorbance was read on an ELISA plate reader at a wavelength of 540 nm with 690 nm reference wavelength. All the tests were repeated in at least three independent experiments at the concentrations of 10, 20, 40 and 80 µg/mL [57].

[2] = test system: HT-29 human colon cancer cell line; assay: cells; format: cell-based; conditions: for anticancer activity compared with standard drug adriamycin, HT-29: HT-29 (human colon cancer) cell line; for GI50: SRB assay, 48 h, HT-29
Protocol: as §1, §2

[3] = test system: MCF-7 human breast cancer cell line; assay: cells; format: cell-based; conditions: 48 h
Protocol: as §1, §2

[4] = test system: Hep-G2 human hepatoma cell line; assay: cells; format: cell-based; conditions: for GI50: SRB assay, 48 h, Hep-G2
Protocol: as §1, §2

[5] = test system: SK-MEL-2 human melanoma cancer cell line; assay: cells; format: cell-based; conditions: SRB assay, 48 h, read-out: GI50 SKMEL-2
Protocol: as §1, §2

[6] = test system: IMR-32 neuroblastoma cell line; assay: cells; format: cell-based, human; conditions: SRB assay, 48 h
Protocol: as §1, §2

in vitro = format: cell-based; conditions: mouse, SRB assay, normal murine embryonic fibroblast cell line; for GI50: read-out: GI50 NIH/3T3
Protocol: as §1, §2

Swiss albino mice = assay: In vivo acute oral toxicity study and gross behavioral studies (OECD Guideline no. 425); design: key to Additional Observation: Convulsions / Behavioral Observation: Motor Activity / Behavioral Observation: Stereotypy / Behavioral Observation: Tremors / Behavioral Observation: Catalepsy / Behavioral Observation: Sedation / Behavioral Observation: Hypnosis / Behavioral Observation: Muscle Spasm / Behavioral Observation: Analgesia / Behavioral Observation: Arching & Rolling / Additional Observation: Skin and Fur / Additional Observation: Eyes Lacrimation / Additional Observation: Salivation / Additional Observation: Diarrhea / Additional Observation: Respiration / Additional Observation: Straub Tail / Additional Observation: Pilo Erection: N. no; Y: Yes; conditions: for Additional Observation: Convulsions / Additional Observation: Diarrhea / Additional Observation: Eyes Lacrimation / Additional Observation: Pilo Erection / Additional Observation: Respiration / Additional Observation: Salivation / Additional Observation: Skin and Fur / Additional Observation: Straub Tail / Behavioral Observation: Analgesia / Behavioral Observation: Arching & Rolling / Behavioral Observation: Catalepsy / Behavioral Observation: Hypnosis / Behavioral Observation: Motor Activity / Behavioral Observation: Muscle Spasm / Behavioral Observation: Sedation / Behavioral Observation: Stereotypy / Behavioral Observation: Tremors / No. of Death / Toxicity: Swiss albino mice; for Additional Observation: Convulsions / Additional Observation: Diarrhea / Additional Observation: Eyes Lacrimation / Additional Observation: Pilo Erection / Additional Observation: Respiration / Additional Observation: Salivation / Additional Observation: Skin and Fur / Additional Observation: Straub Tail / Behavioral Observation: Analgesia / Behavioral Observation: Arching & Rolling / Behavioral Observation: Catalepsy / Behavioral Observation: Hypnosis / Behavioral Observation: Motor Activity / Behavioral Observation: Muscle Spasm / Behavioral Observation: Sedation / Behavioral Observation: Stereotypy / Behavioral Observation: Tremors: single oral dose; for No. of Death / Toxicity: single oral dose 100-2000 mg/kg; for lethal dose / mortality: mice, oral; for mortality: up to 2000 mg/kg
Protocol: The in vivo acute oral toxicity study for the newly synthesized scaffolds 4b and 4h was performed according to the OECD Guideline no. 425 [60] using Swiss albino mice (18–22 gm weight) quarantined at the animal house at Y.B. Chavan College of Pharmacy, Aurangabad IAEC approval number CPCSEA/IAEC/P’col-52/2015-16/115. Each group consisted of six mice (overnight fasted) and kept in a colony cage at 25 ± 2 °C with 55% relative humidity and 12 h of light and dark cycle. A specified dose of 100, 250, 500, 750, 1000, 1500 and 2000 mg/kg body weight of mice was administered orally as a single dose. The acute toxic symptoms and the behavioral changes produced by the test compounds were observed continuously for 4 h periods at 8th, 12th and 24th h. Onset of toxic symptoms and the gross behavioral changes were also recorded. These animals were maintained for further 10 days with observations made daily. In case the animal appeared moribund (dying) the animal was sacrificed in a humane way and it is considered to have died because of toxicity.

[7] = test system: NIH/3T3 normal murine embryonic fibroblast cell line; assay: in vitro; format: cell-based; conditions: SRB assay
Protocol: as §1, §2

[8] = test system: SK-MEL-2 human melanoma cancer cell line; format: cell-based; conditions: at the GI50 concentration, in comparison to control cells
[9] = test system: IMR-32 neuroblastoma cell line; format: cell-based, human; conditions: at the GI50 concentration, in contrast to control cells

## CCOP(=O)(OCC)C(N/N=C1\C(=O)Nc2ccccc21)c1ccc(O)c(C)c1 (stereo not drawn) [4l, (Z)-Diethyl (4-hydroxy-3-methylphenyl)(2-(2-oxoindolin-3-ylidene)hydrazinyl)methylphosphonate]
other
  melting point: 190 to 192 °C
[1]; Homo sapiens
  GI50: < 0.1 µM
[2]
  anticancer activity compared with standard drug adriamycin, HT-29: equipotent
[2]; Homo sapiens
  GI50: < 0.1 µM
[3]; Homo sapiens, MCF7, SRB assay
  GI50: 78.4 µM
[4]; Hep-G2 (human hepatoma) cell line
  anticancer activity compared with standard drug Adriamycin, Hep-G2: equipotent
[4]; Homo sapiens, HepG2
  GI50: < 0.1 µM
[5]; Homo sapiens
  GI50: 76.4 µM
[6]; Homo sapiens
  GI50: 89.8 µM
In vitro
  GI50: > 250 µM

## CCOP(=O)(OCC)C(NN=C1C(=O)Nc2ccccc21)c1ccc(Cl)cc1 (stereo not drawn) [4b, Diethyl(4-chlorophenyl)(2-(2-oxoindolin-3-ylidene)hydrazinyl)methylphosphonate]
[1]
  GI50: < 0.1 µM
[2]
  GI50: 46.9 µM
[3]; SRB assay
  GI50: 67.2 µM
[4]
  GI50: 18.6 µM
[5]
  GI50: 41.4 µM
[6]
  GI50: > 100 µM
Swiss albino mice
  Additional Observation: Convulsions: N
  Additional Observation: Diarrhea: N
  Additional Observation: Eyes Lacrimation: N
  Additional Observation: Pilo Erection: Y
  Additional Observation: Respiration: N
  Additional Observation: Salivation: N
  Additional Observation: Skin and Fur: N
  Additional Observation: Straub Tail: N
  Behavioral Observation: Analgesia: N
  Behavioral Observation: Arching & Rolling: N
  Behavioral Observation: Catalepsy: N
  Behavioral Observation: Hypnosis: N
  Behavioral Observation: Motor Activity: N
  Behavioral Observation: Muscle Spasm: N
  Behavioral Observation: Sedation: N
  Behavioral Observation: Stereotypy: N
  Behavioral Observation: Tremors: N
  No. of Death: Nil
  Toxicity: free of any toxicity and Nil
  lethal dose: above 2000 mg/kg body weight
  mortality: No mortality
[7]
  GI50: > 250 µM

## CCOP(=O)(OCC)C(N/N=C1\C(=O)Nc2ccccc21)c1ccccc1O (stereo not drawn) [4k, (Z)-Diethyl (2-hydroxyphenyl)(2-(2-oxoindolin-3-ylidene)hydrazinyl)methylphosphonate]
other
  melting point: 152 to 154 °C
[1]; Homo sapiens
  GI50: < 0.1 µM
[2]; Homo sapiens
  GI50: 26.1 µM
[3]; Homo sapiens, MCF7, SRB assay
  GI50: > 100 µM
[4]; Homo sapiens, HepG2
  GI50: 11.7 µM
[5]; Homo sapiens
  GI50: 66.2 µM
[6]; Homo sapiens
  GI50: 44.1 µM
In vitro
  GI50: > 250 µM

## CCOc1cc(C(N/N=C2\C(=O)Nc3ccccc32)P(=O)(OCC)OCC)ccc1O (stereo not drawn) [4h, (Z)-Diethyl(3-ethoxy-4-hydroxyphenyl)(2-(2-oxoindolin-3-ylidene)hydrazinyl)methylphosphonate]
[1]
  GI50: < 0.1 µM
[2]
  GI50: 4.1 µM
[3]; SRB assay
  GI50: 70.7 µM
[4]
  GI50: 43.8 µM
[5]
  GI50: 51 µM
[6]
  GI50: > 100 µM
Swiss albino mice
  Additional Observation: Convulsions: N
  Additional Observation: Diarrhea: N
  Additional Observation: Eyes Lacrimation: N
  Additional Observation: Pilo Erection: Y
  Additional Observation: Respiration: N
  Additional Observation: Salivation: N
  Additional Observation: Skin and Fur: N
  Additional Observation: Straub Tail: N
  Behavioral Observation: Analgesia: N
  Behavioral Observation: Arching & Rolling: N
  Behavioral Observation: Catalepsy: N
  Behavioral Observation: Hypnosis: N
  Behavioral Observation: Motor Activity: Y
  Behavioral Observation: Muscle Spasm: N
  Behavioral Observation: Sedation: N
  Behavioral Observation: Stereotypy: N
  Behavioral Observation: Tremors: N
  No. of Death: Nil
  Toxicity: free of any toxicity and Nil
  lethal dose: above 2000 mg/kg body weight
  mortality: No mortality
[7]
  GI50: > 250 µM

## COc1cccc2c1C(=O)c1c(O)c3c(c(O)c1C2=O)C[C@@](O)(C(=O)CO)C[C@@H]3O[C@H]1C[C@H](N)[C@H](O)[C@H](C)O1 [ADR, Adriamycin, reference compound]
[1]; Homo sapiens
  GI50: < 0.1 µM
[2]; Homo sapiens
  GI50: < 0.1 µM
[3]; Homo sapiens, MCF7, SRB assay
  GI50: < 0.1 µM
[4]; Homo sapiens, HepG2
  GI50: < 0.1 µM
[5]; Homo sapiens
  GI50: < 0.1 µM
[6]; Homo sapiens
  GI50: < 0.1 µM
In vitro; NIH/3T3 normal murine embryonic fibroblast cells
  GI50 at 48 h: 82.2 µM

## CCOP(=O)(OCC)C(N/N=C1\C(=O)Nc2ccccc21)c1ccc([N+](=O)[O-])cc1 (stereo not drawn) [4m, (Z)-Diethyl (4-nitrophenyl)(2-(2-oxoindolin-3-ylidene)hydrazinyl)methylphosphonate]
other
  melting point: 172 to 174 °C
[1]; Homo sapiens
  GI50: < 0.1 µM
[2]
  anticancer activity compared with standard drug adriamycin, HT-29: equipotent
[2]; Homo sapiens
  GI50: < 0.1 µM
[3]; Homo sapiens, MCF7, SRB assay
  GI50: 77.2 µM
[4]; Homo sapiens, HepG2
  GI50: 13.3 µM
[5]; Homo sapiens
  GI50: 44.2 µM
[6]; Homo sapiens
  GI50: 56.6 µM
In vitro
  GI50: > 250 µM

## CCOP(=O)(OCC)C(N/N=C1\C(=O)Nc2ccccc21)c1scnc1C (stereo not drawn) [4n, (Z)-Diethyl (4-methylthiazole-5-yl)(2-(2-oxoindolin-3-ylidene)hydrazinyl)methylphosphonate]
other
  melting point: 188 to 190 °C
[1]; Homo sapiens
  GI50: < 0.1 µM
[2]
  anticancer activity compared with standard drug adriamycin, HT-29: equipotent
[2]; Homo sapiens
  GI50: < 0.1 µM
[3]; Homo sapiens, MCF7, SRB assay
  GI50: 58.2 µM
[4]; Homo sapiens, HepG2
  GI50: 24.9 µM
[5]; Homo sapiens
  GI50: 33.1 µM
[6]; Homo sapiens
  GI50: 67.8 µM
In vitro
  GI50: > 250 µM

## CCOP(=O)(OCC)C(NN=C1C(=O)Nc2ccccc21)c1ccc(O)c(OC)c1 (stereo not drawn) [4g, Diethyl(4-hydroxy-3-methoxyphenyl)(2-(2-oxoindolin-3-ylidene)hydrazinyl)methylphosphonates]
[1]
  GI50: < 0.1 µM
[2]
  GI50: 12.2 µM
[3]; SRB assay
  GI50: > 100 µM
[4]
  GI50: 32 µM
[5]
  GI50: 24 µM
[8]
  morphological changes in SK-MEL-2 cancer cell lines: cell detachment, cell wall deformation, cell shrinkage and reduced number of viable cells
[6]
  GI50: > 100 µM
[7]
  GI50: > 250 µM

## CCOP(=O)(OCC)C(NN=C1C(=O)Nc2ccccc21)c1ccc(O)cc1 (stereo not drawn) [4f, Diethyl(4-hydroxyphenyl)(2-(2-oxoindolin-3-ylidene)hydrazinyl)methylphosphonate]
other
  melting point: 140 to 142 °C
[1]; Homo sapiens
  GI50: < 0.1 µM
[2]
  anticancer activity compared with standard drug adriamycin, HT-29: equipotent
[2]; Homo sapiens
  GI50: < 0.1 µM
[3]; Homo sapiens, MCF7, SRB assay
  GI50: > 100 µM
[4]; Homo sapiens, HepG2
  GI50: 12.2 µM
[5]; Homo sapiens
  GI50: 51.6 µM
[6]; Homo sapiens
  GI50: < 0.1 µM
[9]
  morphological changes in IMR-32 cancer cells: cell detachment, cell wall deformation, cell shrinkage and reduced number of viable cells
In vitro
  GI50: > 250 µM
